Source: patent publication US6756504B2, “Sphingolipids” (Yissum Research Development Company of the Hebrew …, priority 2000, dated 2004)

What was measured:
Format in all cases: cell-based, Human
[1] = system: Bod3-SPM (sphingomyelin) synthesis in HL60 cells; experiment: Sphingolipid metabolism from Bodipy-C3-ceramide: Bod3-SPM in HL60; conditions: HL60, 3 hours, 2.5 μM Bodipy-C3-ceramide; read-out: od 3-SPM (IC50 for reduction of Bod3-SPM, cell+medium)
Procedure: (§1) In order to examine the effect of the different compounds on sphingolipids metabolism, different cell lines were incubated with increasing concentrations of different compounds of the invention in the presence of 2.5 μM Bodipy-C3-ceramide that was added to the culture medium as a solution in dimethylsulfoxide (not exceeding 0.1% DMSO of the final volium). After 3 hours, cells and medium were collected and centrifuged. Cells were next extracted with chloroform-methanol containing 2% acetic acid 1:1 (by volume) and the medium was shaken with an equal volume of chloroform-methanol, 1:1 (by volume). The phases were separated by centrifugation and the lower chloroform phase was collected. The solvents were evaporated and applied to thin layer chromatography silica gel plates (Whatman 4865-821) with a concentrating zone.
(§2) Plates were developed as follows: For medium: in chloroform-methanol-H2O, 75:25:4 by volume. For cells: plates were first developed with chloroform-methanol, 9:1, then dried and re-run in chloroform-methanol: H2O, 65:35:4.
(§3) Standards of Bodipy-C3-ceramide: Bodipy-C3-glucosylceramide (Bod3-GC) and Bodipy C3 sphingomyelin (Bod3-SPM) were used as markers. The fluorescence of the respective Bod3-SPM and Bod3-GC spots was quantified using a Fuji FLA-2000 scanner.

HL60 cells = experiment: Apoptosis in HL60 cells, propidium iodide flow cytometry (FACS)
Procedure: The apoptotic effect of three different compounds was further examined on HL60 cells using a flow cytometry method. […] Washed cells were then treated with 5% Triton and stained with propidium iodide 0.5% mg in 0.1% sodium citrate pH 7.4. Analysis was performed using a Becton Dickinson Fluorescence Activated Cell Sorter (FACS).

[2] = system: Bod3-SPM synthesis in MCF-NCi cells; experiment: Sphingolipid metabolism: Bod3-SPM in MCF-NCi; conditions: 3 hours, 2.5 μM Bodipy-C3-ceramide, read-out: od 3-SPM (IC50 for reduction of Bod3-SPM)
Procedure: as §1, §2, §3

[3] = system: Bod3-GC (glucosylceramide) synthesis in HL60 cells; experiment: Sphingolipid metabolism from Bodipy-C3-ceramide: Bod3-GC in HL60; conditions: HL60, 3 hours, 2.5 μM Bodipy-C3-ceramide; read-out: od 3-GC (IC50 for Bod3-GC reduction)
Procedure: as §1, §2, §3

IC50 [1]: 4 µM
IC50 [2]: 7 µM
IC50 [3]: 5 µM
Structure (SMILES): CCCCCCNc1ccc([C@@H](O)[C@@H](CO)NCCCCCC)cc1 [AD-2665, (2R,3R)-2-(N-hexylamine)-1-(4-N-hexylaminophenyl)-1,3-propanediol]
apoptotic cells (HL60 cells; HL60, 30 min, 40 μM): 5%
apoptotic cells (HL60 cells; HL60, 3 hours, 10 μM): about 8%
apoptotic cells (HL60 cells; HL60, 3 hours, 20 μM): 26%
apoptotic cells (HL60 cells; HL60, 24 hours, 10 μM): 25%
